Reference: US7645752B2, “Sulfonyl substituted 1H-indoles as ligands for the 5-hydroxytryptamine receptors” (Wyeth LLC, priority 2006, dated 2010)
Where two headings read alike, the source gives them in different places.

Experiments:
[1] = background statement; cited from earlier work
[2] = target: T1, human cloned 5-HT6 receptors (Homo sapiens, UniProt P50406); experiment: 5-HT6 binding affinity, [3H]-LSD displacement on membranes of Hela cells; details: for inhibition at 1 µM: read-out: % inhibition at 1 micromole
T1 construct: expressed in transfected cells; host or cells: HeLa cells
T1 sequence (P50406 whole entry): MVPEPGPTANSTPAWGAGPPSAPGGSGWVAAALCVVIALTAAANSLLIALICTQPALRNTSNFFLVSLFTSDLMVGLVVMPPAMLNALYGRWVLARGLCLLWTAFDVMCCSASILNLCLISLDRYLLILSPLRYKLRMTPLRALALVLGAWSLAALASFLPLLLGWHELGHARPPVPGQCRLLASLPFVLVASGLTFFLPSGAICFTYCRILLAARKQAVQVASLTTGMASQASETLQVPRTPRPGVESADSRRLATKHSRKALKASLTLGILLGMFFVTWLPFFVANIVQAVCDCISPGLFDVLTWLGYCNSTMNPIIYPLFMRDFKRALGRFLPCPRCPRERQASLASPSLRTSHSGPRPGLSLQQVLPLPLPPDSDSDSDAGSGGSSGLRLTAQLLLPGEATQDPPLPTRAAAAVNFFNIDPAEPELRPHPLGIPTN
Outline: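 Filter-bound radioactivity counted by scintillation. Binding at varying test-compound concentrations expressed as percent of specific binding without compound and plotted log % bound versus log concentration.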

[3] = target: T2, human hNET (Homo sapiens, UniProt P23975); experiment: Norepinephrine (NE) uptake assay in MDCK-Net6 cells; format: cell-based
T2 construct: expressed in transfected cells
T2 sequence (P23975 whole entry): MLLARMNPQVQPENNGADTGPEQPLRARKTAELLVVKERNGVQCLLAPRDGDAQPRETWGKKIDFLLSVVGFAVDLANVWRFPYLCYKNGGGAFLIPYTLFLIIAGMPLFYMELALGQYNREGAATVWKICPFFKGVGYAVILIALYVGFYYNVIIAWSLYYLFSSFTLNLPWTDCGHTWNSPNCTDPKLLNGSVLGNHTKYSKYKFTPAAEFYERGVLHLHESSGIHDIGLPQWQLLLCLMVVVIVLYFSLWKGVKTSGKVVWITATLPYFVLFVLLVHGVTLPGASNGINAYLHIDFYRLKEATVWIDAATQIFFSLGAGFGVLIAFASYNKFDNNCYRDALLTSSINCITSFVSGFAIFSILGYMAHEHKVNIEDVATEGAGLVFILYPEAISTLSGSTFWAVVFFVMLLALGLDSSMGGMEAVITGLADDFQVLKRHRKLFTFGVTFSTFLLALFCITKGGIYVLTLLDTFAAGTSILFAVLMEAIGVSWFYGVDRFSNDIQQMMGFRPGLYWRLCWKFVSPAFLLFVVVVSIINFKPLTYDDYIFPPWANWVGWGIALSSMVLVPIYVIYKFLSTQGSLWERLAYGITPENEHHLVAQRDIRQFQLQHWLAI

[4] = target: human 5-HT2A receptor (Homo sapiens, UniProt P28223); experiment: 5-HT2A FLIPR assay, antagonism of DOI calcium response in CHO cells
human 5-HT2A receptor, sequence (P28223 whole entry): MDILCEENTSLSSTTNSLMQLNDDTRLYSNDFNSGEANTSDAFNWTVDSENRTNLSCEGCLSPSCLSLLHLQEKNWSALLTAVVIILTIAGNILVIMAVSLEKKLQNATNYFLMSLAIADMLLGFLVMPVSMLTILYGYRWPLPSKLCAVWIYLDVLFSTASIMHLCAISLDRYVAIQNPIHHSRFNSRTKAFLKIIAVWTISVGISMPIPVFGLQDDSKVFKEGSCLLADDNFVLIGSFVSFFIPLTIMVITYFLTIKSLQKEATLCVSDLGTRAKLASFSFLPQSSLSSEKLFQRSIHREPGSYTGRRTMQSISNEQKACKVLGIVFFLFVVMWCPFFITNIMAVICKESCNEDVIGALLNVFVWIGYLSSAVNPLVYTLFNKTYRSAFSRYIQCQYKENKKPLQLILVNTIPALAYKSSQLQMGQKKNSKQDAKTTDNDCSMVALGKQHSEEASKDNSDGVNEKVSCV

[5] = Table 1, 5-HT6 binding, at 1 micromole
[6] = Table 1, [3H]-LSD 3.0 nM, Hela cell membranes, read-out: Ki (nM) @ 5-HT6 receptor
[7] = read-out: 5-HT2A IC50, antagonism of 3 nM DOI, CHO cells, FLIPR

Structure (SMILES) | efficacy in hot flushes [1] | inhibition at 1 µM [2, 5] [%] | Ki [2, 6] [nM] | Ki ([2]; Table 2, read-out: 5-HT6 Ki) [nM] | IC50 ([3]; [3H]NE uptake, MDCK-Net6 cells) [nM] | IC50 [4, 7] [nM] | IC50 [4] [nM] | IC50 [3] [nM] | inhibition at 1 µM [2] [%]
CN1CCN2c3ccccc3Cc3ccccc3C2C1 (stereo not drawn) [Mianserin, reference compound] | had efficacy in treating hot flushes | – | – | – | – | – | – | – | –
CN(C)CCc1cccc2[nH]cc(S(=O)(=O)c3ccccc3)c12 [Example 31, N,N-dimethyl-N-{2-[3-(phenylsulfonyl)-1H-indol-4-yl]ethyl}amine] | – | 75 | 142 | 142 | 80 | 459 | – | – | –
CC(NCCc1cccc2[nH]cc(S(=O)(=O)c3ccccc3)c12)C(C)(C)C (stereo not drawn) [Example 46, N-{2-[3-(phenylsulfonyl)-1H-indol-4-yl]ethyl}-N-(1,2,2-trimethylpropyl)amine] | – | – | 107 | 107 | 2400 | – | 24 | – | –
NCCc1cccc2[nH]cc(S(=O)(=O)c3ccccc3)c12 [Example 61, {2-[3-(phenylsulfonyl)-1H-indol-4-yl]ethyl}amine] | – | 44 | 993 | 993 | – | – | 14000 | 961 | –
O=S(=O)(c1ccccc1)c1c[nH]c2cccc(CCNC3CCCCC3)c12 [Example 39, N-{2-[3-(phenylsulfonyl)-1H-indol-4-yl]ethyl}cyclohexanamine] | – | – | – | 599 | 1430 | – | 61 | – | 42
O=S(=O)(c1ccccc1)c1c[nH]c2cccc(CCN3CCCCC3)c12 [Example 44, 3-(phenylsulfonyl)-4-(2-piperidin-1-ylethyl)-1H-indole] | – | – | – | 434 | – | 180 | – | 47 | 69
O=S(=O)(c1ccccc1)c1c[nH]c2cccc(CCNC3CCC3)c12 [Example 37, N-{2-[3-(phenylsulfonyl)-1H-indol-4-yl]ethyl}cyclobutanamine] | – | – | 47 | 47 | 99 | – | 600 | – | –
